Measured values from patent publication US5591431A, “Enhancement of clot lysis” (G.D. Searle & Co., priority 1990, dated 1997).
Where “and” joins values, the source holds several entries; their conditions need not be identical. Equal entries are not always repeated. Where two headings read alike, the source gives them in different places. Peptide text beside a SMILES is read from it.

Experiments:
[1] = tested on: α-2 antiplasmin; assay: Antiplasmin assay (plasmin cleavage of S2251) in rabbit plasma during clot lysis experiments; format: in vivo
Description: Antiplasmin levels were monitored by the antiplasmin assay (Helena Labs, Beaumont, Tex.). This assay measures inhibition of plasmin cleavage of a chromogenic substrate S2251 (H-D Valyl-Leucyl-L-Lysine-p-nitroanilide dihydrochloride) obtained from Helena Labs. A typical reaction mixture contains 215 μL of 50 mM Tris buffer pH 7.4, 110 mM NaCl, 5 μL rabbit plasma, 15 μL plasmin (1 unit), and 15 μL of substrate S2251 (3.5 mM stock) in a total reaction volume of 250 μL. The generation of p-nitroaniline product is monitored at […].

[2] = tested on: tPA antigen; assay: tPA antigen ELISA in rabbit plasma during clot lysis experiments; format: in vivo; details: with tPA
Description: Samples of rabbit plasma were assayed by a commercial ELISA assay from American Diagnostic Inc. (ADI), New York, N.Y. Several modifications are made to the ADI protocol, which include using 10 μL of untreated plasma sample to minimize background and spiking the standard curve with 10 μL rabbit plasma to equalize any salt effect that might result. The assay was standardized with mouse C127 cell tPA (Invitron, St. Louis, Mo.).
The tPA antigen levels were monitored hourly to determine if the increase in clot lysis is due to an extended tPA half-life. […] Antigen levels of tPA decreased after infusion is stopped, indicating normal clearance of the exogenous tPA.

[3] = tested on: fibrinogen; details: rabbit, in vivo
Description: (§1) Fibrinogen concentration in dilute plasma is inversely proportional to the thrombin clotting of the plasma (S. Borgstrom, Acta Chir. Scand. 90:419 (1945); A. Clauss, Acta Haemat, 17:273 (1957); K. Jacobson, Scand. J. Clin. Lab. Med. 7:7 (1955). Plasma was diluted 1:10 and 200 μL of this solution added to 100 μL (10 units) of bovine thrombin. Clotting time was measured on a clinical fibrometer, and fibrinogen levels determined as mg/dL plasma.

[4] = tested on: isolated clot in the rabbit jugular vein (tPA mediated clot lysis); assay: Rabbit jugular vein thrombolysis model I: peptide added during clot formation, then tPA infusion; format: in vivo, rabbit (New Zealand White); details: tPA alone 0.125 mg/kg infused over 4 h; standard curve 1 conditions
Description: Two independent studies were performed using the rabbit jugular vein thrombolysis model described in D. Collen et al., J. Clin. Invest. 71:368 (1983), with minor modifications. The enhancer peptide was administered during clot formation prior to tPA administration in one set of experiments with the rabbit jugular vein thrombolysis model. The enhancer peptide produced a five-fold increase in the clot lysis obtained from infusion of 0.125 mg tPA/kg, which corresponds to the lysis observed by a six-fold increase in tPA dose.
Clot lysis standard curves were performed for varying doses of tPA from C127 mouse cells (Invitron). […] To compare the data, standard curves were established for each procedure. A linear dose dependency is observed with both sets of data. […] Increases in clot lysis were evaluated by two methods. In the first method, fold increases in % clot lysis were calculated as follows: [formula] […] Fold increase in tPA dose was determined as follows: [formula] […]
An isolated clot was formed in the rabbit jugular vein using bovine thrombin (Calbiochem, San Diego, Calif.) and ^125 I fibrinogen (Amersham, Arlington Heights, Ill.). […] Blood samples were taken every hour from the femoral vein, and clot lysis was measured by comparison of residual radioactivity in the clot at the end of 4 1/2 hours. […]

[5] = tested on: jugular vein clot (tPA mediated clot lysis); assay: Rabbit jugular vein thrombolysis model II: peptide coinfused with tPA; format: in vivo, rabbit (New Zealand White); details: tPA alone 0.125 mg/kg; standard curve 2 conditions (17% background lysis)
Description: In a second experiment the enhancer peptide was administered with tPA. […] Clot lysis standard curves were performed for varying doses of tPA from […] mouse cells (Invitron). […] To compare the data, standard curves were established for each procedure. A linear dose dependency is observed with both sets of data. […] The chosen dose of tPA (0.125 mg/kg) for the peptide experiments gave 17% and 27% lysis, respectively, for the two sets of experiments. This dose was chosen as the baseline for the peptide study so that an increase in clot lysis would be observable. Increases in clot lysis were evaluated by two methods. In the first method, fold increases in % clot lysis were calculated as follows: [formula] In the second method, the equivalent dose of tPA necessary to obtain the clot lysis observed with tPA and peptide was extrapolated from the appropriate standard curve. Fold increase in tPA dose was determined as follows: [formula] A dose response study was performed with the peptides using a constant tPA dose (FIG. 5). Three doses are tested: 1.85 mg/kg, 0.185 mg/kg and 0.0185 mg/kg, which correspond to molar ratios of peptide to tPA of 385, 38.5, and 3.85, respectively with weight ratios of enhancer peptide to tPA of 15:1, 1.5:1, and 0.15:1 respectively. […]

[6] = tested on: fibrinogen; assay: Fibrinogen level in rabbit plasma by thrombin clotting time during clot lysis experiments; details: enhancer peptide dose 0 mg/kg (tPA only)
Description: as §1

Compound: CC[C@H](C)[C@H](NC(=O)[C@H](Cc1ccccc1)NC(=O)[C@@H](NC(=O)[C@H](CC(C)C)NC(=O)[C@H](Cc1ccccc1)NC(=O)[C@@H]1CCCN1C(=O)[C@H](CCCNC(=N)N)NC(=O)[C@H](CC(N)=O)NC(=O)[C@H](C)NC(=O)[C@H](CCCCN)NC(=O)[C@H](Cc1ccccc1)NC(=O)[C@@H](NC(=O)[C@@H](NC(=O)[C@H](CCCNC(=N)N)NC(=O)[C@H](CC(N)=O)NC(=O)[C@@H]1CCCN1C(=O)[C@H](CC(N)=O)NC(=O)[C@H](CC(C)C)NC(=O)[C@H](CO)NC(=O)[C@H](CCCNC(=N)N)NC(=O)CNC(=O)[C@H](C)N)C(C)C)[C@@H](C)O)C(C)C)C(=O)O [enhancer peptide] (H-AGRSLNPNRVTFKANRPFLVFI-OH)
- α-2 antiplasmin levels ([1]; all rabbit experiments, including those with increased clot lysis from enhancer peptide): did not change
- α-2 Antiplasmin (% of baseline) ([1]; enhancer peptide dose 0.0185 mg/kg, with tPA): 87 +/- 7 % of baseline
- α-2 Antiplasmin (% of baseline) ([1]; enhancer peptide dose 0.185 mg/kg, with tPA): 96 +/- 1 % of baseline
- α-2 Antiplasmin (% of baseline) ([1]; enhancer peptide dose 1.85 mg/kg, with tPA): 86 +/- 8 % of baseline
- α-2 Antiplasmin (% of baseline) ([1]; enhancer peptide dose 9.25 mg/kg, with tPA): 92 +/- 2 % of baseline
- tPA Antigen 30 min. after Infusion ([2]; enhancer peptide dose 0.0185 mg/kg): 0 mg/mL
- tPA Antigen 30 min. after Infusion ([2]; enhancer peptide dose 0.185 mg/kg): 0 mg/mL
- Fibrinogen levels [3]: did not change
- Fibrinogen (% of baseline) ([3]; 0.0185 mg/kg): 100 % of baseline
- Fibrinogen (% of baseline) ([3]; 0.185 mg/kg): 100 +/- 1 % of baseline
- Fibrinogen (% of baseline) ([3]; 1.85 mg/kg): 100 +/- 1 % of baseline
- Fibrinogen (% of baseline) ([3]; 9.25 mg/kg): 91 % of baseline
- Fibrinogen (% of baseline) ([3]; 18.5 mg/kg): 91 +/- 13 % of baseline

Compound: tPA: tissue plasminogen activator from C127 mouse cells (Invitron Lot #76-001-31395), control tPA for this study
- clot lysis [4]: 17% and 16 +/- 1%
- clot lysis [5]: 27%
- α-2 Antiplasmin (% of baseline) ([1]; enhancer peptide dose 0 mg/kg (tPA only)): 94 +/- 2 % of baseline
- Fibrinogen (% of baseline) [6]: 100 % of baseline
